Measurements published in patent publication US20100003311A1, “Antimicrobial Composition” (priority 2006, published 2010).

What was measured:
human keratinocytes = assay: β-defensin production in culture medium containing human keratinocytes contacted with the compositions (FIG. 1); type: cell-based; details: compared with lipopolysaccharide
From the text: The data was obtained by measuring β-defensin production in culture medium containing human keratinocytes when contacted with the various compositions.

[1] = test system: epithelial surfaces (both mucosa and skin); assay: release of β-defensin 2 by epithelial surfaces
From the text: The stimulation of β-defensin 2 by hyaluronic acid has been observed by the patent inventor. […] The application of hyaluronic acid to the skin is thought to increase the amount of innate immunity antibiotic peptides such as β-defensin 2 that are present and therefore provide an increased level of innate immunity. The stimulation of defensin and other innate immunity antibiotic peptide expression in sites of skin and mucosa injury may therefore facilitate tissue repair by providing innate immunity and decreasing the possible bacterial contamination and colonisation of tissues by opportunistic pathogens.

hyaluronic acid
stimulation of β-defensin production (human keratinocytes): stimulates β-defensin production by human keratinocytes significantly, and considerably more than lipopolysaccharide
release of β-defensin 2 [1]: able to determine the release of β-defensin 2 by epithelial surfaces
